According to patent US20060276464A1, “Diarylsulfone sulfonamides and use thereof” (Wyeth, priority 2005, published 2006):
Values joined by “and” are separate entries in the source; they are usually repeats but may differ in a detail not shown here. Equal values may be shown once. Read-outs that look alike come from different tables or passages of the source.

Experiments:
SFRP-1 [1] = molecular target: T1, SFRP-1 (Homo sapiens, UniProt Q8N474); assay: Cell-based assay for in vitro measurement of SFRP-1/SARP2 antagonist activity (U2OS cells co-transfected with 16x TCF-tk-Luciferase reporter, Wnt and hSFRP-1); settings: for fold induction at 15 µM / fold induction at 10 µM: U2OS; for fold induction at 10 µM: read-out: Fold Induction with SFRP-1, U2OS cells, single dose 10 μM, luciferase reporter, fold induction over SFRP-1 control;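 as to all read-outs here: U2OS cells co-transfected with a TCF-tk luciferase reporter, a Wnt vector, hSFRP-1 or empty vector and CMV-βgal, luciferase luminescence read in cell lysates alongside βgal activity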
T1 sequence (Q8N474 32-314): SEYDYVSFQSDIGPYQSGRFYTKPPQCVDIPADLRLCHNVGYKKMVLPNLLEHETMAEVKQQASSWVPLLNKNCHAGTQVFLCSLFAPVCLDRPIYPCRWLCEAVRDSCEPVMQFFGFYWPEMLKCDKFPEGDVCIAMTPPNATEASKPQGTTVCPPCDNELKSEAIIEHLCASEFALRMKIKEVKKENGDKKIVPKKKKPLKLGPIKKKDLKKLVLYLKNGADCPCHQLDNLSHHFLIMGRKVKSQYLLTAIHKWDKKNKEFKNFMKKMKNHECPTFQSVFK

SFRP-1 [2] = molecular target: T1, SFRP-1; assay: Fluorescence polarization binding assay (competitive displacement of a probe compound from SFRP-1); settings: fluorescence anisotropy, 45 nM SFRP-1, 20 nM probe;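 also: test compound competes with a fluorescent probe held by SFRP-1, seen as a drop in probe anisotropy after incubation in darkness, with anisotropy as function of rising compound dose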
[3] = read-out: Fold Induction with SFRP-1, Conc 15 μM, single dose, luciferase reporter, fold induction over SFRP-1 control, cells with SFRP-1
[4] = read-out: Fold Induction without SFRP-1, Conc 15 μM, single dose, luciferase reporter, cells without SFRP-1 (specificity control)

| SMILES | melting point | fold induction at 15 µM (SFRP-1 [1]; [3]) | fold induction at 15 µM (SFRP-1 [1]; [4]) | IC50 (SFRP-1 [2]) | fold induction at 10 µM (SFRP-1 [1]) | EC50 (SFRP-1 [1]) | fold induction at 15 µM (SFRP-1 [1]; read-out: Fold Induction with SFRP-1, Conc 15 μM, with SFRP-1, fold induction over SFRP-1 control, single dose) | fold induction at 15 µM (SFRP-1 [1]; read-out: Fold Induction without SFRP-1, Conc 15 μM, without SFRP-1, single dose) |
| --- | --- | --- | --- | --- | --- | --- | --- | --- |
| CC(C)c1cc(C(C)C)c(S(=O)(=O)c2ccccc2)cc1S(=O)(=O)NCCc1cccnc1 [Example 616, 2,4-Diisopropyl-5-(phenylsulfonyl)-N-(2-pyridin-3-ylethyl)benzenesulfonamide] | 163 to 165 °C | 2.7 | 1 | 0.8 µM | – | – | – | – |
| CCCc1ccc(S(=O)(=O)c2ccccc2)cc1S(=O)(=O)NCCc1ccccn1 [Example 555, 5-(Phenylsulfonyl)-2-propyl-N-(2-pyridin-2-ylethyl)benzenesulfonamide] | 100 to 102 °C | 3.1 | 1.2 | 0.7 µM and 1.1 µM | – | – | – | – |
| CC(C)c1ccc(S(=O)(=O)c2ccccc2)cc1S(=O)(=O)NC1CCN(C(=O)c2ccc3ccccc3c2)CC1 [Example 809, 2-Isopropyl-N-[1-(2-naphthoyl)piperidin-4-yl]-5-(phenylsulfonyl)benzenesulfonamide] | 130 to 132 °C | – | – | 1.1 µM | 2.8 | – | – | – |
| CN1[C@@H]2CC[C@H]1CC(NS(=O)(=O)c1cc(S(=O)(=O)c3ccccc3)ccc1C(F)(F)F)C2 (relative stereo) [Example 1035, N-[(1R*, 5S*)-8-Methyl-8-azabicyclo[3.2.1]oct-3-yl]-5-(phenylsulphonyl)-2-(trifluoromethyl)benzenesulfonamide] | 154 to 157 °C | – | – | 0.3 µM | – | 1.35 µM | – | – |
| CCOc1ccc2ccccc2c1C(=O)N1CCC(NS(=O)(=O)c2cc(S(=O)(=O)c3ccccc3)ccc2C(C)C)CC1 [Example 813, N-[1-(2-Ethoxy-1-naphthoyl)piperidin-4-yl]-2-isopropyl-5-(phenylsulfonyl)benzenesulfonamide] | 164 to 166 °C | – | – | 0.4 µM | 3.9 | 0.674 µM | – | – |
| CC(C)c1cc(C(C)C)c(S(=O)(=O)c2ccccc2)cc1S(=O)(=O)NCCC1CCOCC1 [Example 612, 2,4-Diisopropyl-5-(phenylsulfonyl)-N-[2-(tetrahydro-2H-pyran-4-yl)ethyl]benzenesulfonamide] | 90 to 92 °C | 2 | 1.1 | 1.6 µM | – | – | – | – |
| CC(C)c1cc(C(C)C)c(S(=O)(=O)c2ccc(F)cc2)cc1S(=O)(=O)NC1CCOCC1 [Example 620, 5-[(4-Fluorophenyl)sulfonyl]-2,4-diisopropyl-N-(tetrahydro-2H-pyran-4-yl)benzenesulfonamide] | 183 to 186 °C | 2.7 | 1 | 1 µM | – | – | – | – |
| CC(C)c1cc(C(C)C)c(S(=O)(=O)c2ccccc2)cc1S(=O)(=O)NC1CCCC1 [Example 613, N-Cyclopentyl-2,4-diisopropyl-5-(phenylsulfonyl)benzenesulfonamide] | 179 to 181 °C | 1.3 | 1 | 2.5 µM and 3 µM | – | – | – | – |
| CC(C)c1ccc(S(=O)(=O)c2ccccc2)cc1S(=O)(=O)NC1CCN(C(=O)c2ccc(C(C)(C)C)cc2)CC1 [Example 812, N-[1-(4-tert-Butylbenzoyl)piperidin-4-yl]-2-isopropyl-5-(phenylsulfonyl)benzenesulfonamide] | 150 to 152 °C | – | – | 0.6 µM | 3.9 | – | – | – |
| CCCc1ccc(S(=O)(=O)c2ccc(F)cc2)cc1S(=O)(=O)NC1CCN(C(=O)OC(C)(C)C)CC1 [Example 567, tert-Butyl 4-[({5-[(4-fluorophenyl)sulfonyl]-2-propylphenyl}sulfonyl)amino]piperidine-1-carboxylate] | 151 to 153 °C | 2.2 | 1.3 | 1.6 µM | – | – | – | – |
| CC(C)c1cc(C(C)C)c(S(=O)(=O)c2ccccc2)cc1S(=O)(=O)NCCc1ccncc1 [Example 617, 2,4-Diisopropyl-5-(phenylsulfonyl)-N-(2-pyridin-4-ylethyl)benzenesulfonamide] | 178 to 180 °C | 2 | 1.2 | 1 µM | – | – | – | – |
| CC(C)c1cc(C(C)C)c(S(=O)(=O)c2ccc(F)cc2)cc1S(=O)(=O)NCCc1ccccn1 [Example 631, 5-[(4-Fluorophenyl)sulfonyl]-2,4-diisopropyl-N-(2-pyridin-2-ylethyl)benzenesulfonamide] | 159 to 161 °C | 2.4 | 1 | 4 µM | – | – | – | – |
| CC(C)c1ccc(S(=O)(=O)c2ccccc2)cc1S(=O)(=O)NC1CCN(C(=O)c2ccc(C#N)cc2)CC1 [Example 811, N-[1-(4-Cyanobenzoyl)piperidin-4-yl]-2-isopropyl-5-(phenylsulfonyl)benzenesulfonamide] | 136 to 138 °C | – | – | 0.3 µM | 2.6 | – | – | – |
| CC(C)c1cc(C(C)C)c(S(=O)(=O)c2ccccc2)cc1S(=O)(=O)NCCCn1ccnc1 [Example 615, N-[3-(1H-Imidazol-1-yl)propyl]-2,4-diisopropyl-5-(phenylsulfonyl)benzenesulfonamide] | 203 to 205 °C | 1.7 | 1 | 1.2 µM | – | – | – | – |
| O=S(=O)(NC1CCOCC1)c1cc(S(=O)(=O)c2ccccc2)ccc1C(F)(F)F [Example 608, 5-(phenylsulfonyl)-N-(tetrahydro-2H-pyran-4-yl)-2-(trifluoromethyl)benzenesulfonamide] | 155 to 158 °C | 3.8 | 1.1 | 0.3 µM and 0.5 µM | – | – | – | – |
| Cc1ccc(S(=O)(=O)c2cc3c(c(S(=O)(=O)NCCc4ccccc4F)c2)CCCC3)cc1 [Example 441, N-[2-(2-Fluorophenyl)ethyl]-3-[(4-methylphenyl)sulfonyl]-5,6,7,8-tetrahydronaphthalene-1-sulfonamide] | 55 to 60 °C | – | – | 6 µM | – | – | 1.8 | 1.1 |
| CCCc1ccc(S(=O)(=O)c2ccccc2)cc1S(=O)(=O)NCCc1ccncc1 [Example 859, 5-(Phenylsulfonyl)-2-propyl-N-(2-pyridin-4-ylethyl)benzenesulfonamide] | 155 to 157 °C | – | – | 0.6 µM | 3.6 | 1.54 µM | – | – |
